Experimental data taken from US6299865A, “Reduction of hair growth” (priority 2000, dated 2001).

Experiments:
Human hair follicles = test: Human hair follicle growth assay; type: cell-based; conditions: 0.1 mM, control 0.77 ± .09
Method: Human hair follicles in growth phase (anagen) were isolated from face-lift tissue under a dissecting scope using a scalpel and watchmakers forceps. The skin was sliced into thin strips exposing 2-3 rows of follicles that could readily be dissected. Follicles were placed into 0.5 mL Williams E medium (Life Technologies, Gaithersburg, Md.) supplemented with […] L-glutamine, 10 μg/mL insulin, 10 ng/mL hydrocortisone, 100 units penicillin, 0.1 mg/mL streptomycin and 0.25 μg/mL amphotericin B. The follicles were incubated in 24 well plates (1 follicle/well) at 37° C. in an atmosphere of 5% CO2 and 95% air. Hair follicles were video recorded in the 24-well plates under the dissecting scope under a power of 20×. Typically, initial recordings were made on day 0 (day follicles were placed in culture) or day 1, and again on days 7 or 8. Hair follicle lengths were assessed using an image analysis software system (Computer Eyes and NIH Image).

[1] = tested on: tissue-specific form of alkaline phosphatase; conditions: stereoselective: only the L-form is active; uncompetitive; cited from earlier work
[2] = tested on: tissue nonspecific form of alkaline phosphatase; conditions: several species; cited from earlier work

## [Na+].[Na+].[Na+].[O]=[V]([O-])([O-])[O-] [Sodium Orthovanadate, sodium orthovanadate]
Human hair follicles
  Hair Follicle Length Increase (Day 6-Day 0): 0.32 ± .06 mm

## N[C@@H](Cc1c[nH]c2ccccc12)C(=O)O [tryptophan]
[1]
  Inhibition of tissue-specific form of alkaline phosphatase: inhibit

## N[C@@H](Cc1ccccc1)C(=O)O [phenylalanine]
[1]
  Inhibition of tissue-specific form of alkaline phosphatase: inhibit

## N=C(N)NCCCC[C@H](N)C(=O)O [L-homoarginine]
[2]
  Inhibition of tissue nonspecific form of alkaline phosphatase: acts as an inhibitor

## CC(C)C[C@H](N)C(=O)O [leucine]
[1]
  Inhibition of tissue-specific form of alkaline phosphatase: inhibit
